This test relates to Bel-7402. As to the kind of experiment: Cytotoxicity against human Bel7402 cells by MTT assay. It counts as functional, cell-based.

The values that follow come from ChEMBL document CHEMBL1155024, “Microbial transformation of cinobufagin by Syncephalastrum racemosum” (J Nat Prod, 2008).

Regarding `CC(=O)O[C@H]1[C@H]2O[C@]23[C@@H]2CC[C@]4(O)C[C@@H](O)CC[C@]4(C)[C@H]2C[C@@H](O)[C@]3(C)[C@H]1c1ccc(=O)oc1`, 660 nM corresponded to half-maximal inhibition (IC50). On to `CC(=O)O[C@H]1[C@H]2O[C@]23[C@@H]2CC[C@@H]4C[C@@H](O)CC[C@]4(C)[C@H]2C[C@@H](O)[C@]3(C)[C@H]1c1ccc(=O)oc1`, for which the midpoint of inhibition, the IC50, lay at 370 nM.

As to `CC(=O)O[C@H]1[C@H]2O[C@]23[C@@H]2[C@@H](O)C[C@@H]4C[C@@H](O)CC[C@]4(C)[C@H]2CC[C@]3(C)[C@H]1c1ccc(=O)oc1`, the IC50 was determined as 540 nM.

`CC(=O)O[C@H]1[C@H]2O[C@]23[C@@H]2CC[C@]4(O)C[C@@H](O)CC[C@]4(C)[C@H]2CC[C@]3(C)[C@H]1c1ccc(=O)oc1` [CINOBUFOTALIN] returned a 50% inhibitory concentration (IC50) of 1210 nM. Regarding `CC(=O)O[C@H]1[C@H]2O[C@]23[C@@H]2CC[C@@H]4C[C@@H](O)CC[C@]4(C)[C@H]2CC[C@]3(C)[C@H]1c1ccc(=O)oc1` [CINOBUFAGIN], the IC50 was found to be 100 nM.
